Biological target: T1, porcine pancreatic elastase (PPE) (Sus scrofa, UniProt P00772)
T1 construct: purchased Sigma
Assay: Specificity assay, porcine pancreatic elastase
Type: biochemical
Conditions: 2 h enzyme-inhibitor pre-incubation; read-out: PPE activity in the specificity assays (IC50)
Protocol: The specificities of compounds of the present disclosure were determined against a variety of serine proteases: human neutrophil elastase (HNE), porcine pancreatic elastase (PPE) and human pancreatic chymotrypsin and one cysteine protease: human liver cathepsin B. In all cases a 96-well plate format protocol using calorimetric p-nitroaniline (pNA) substrate specific for each enzyme was used as described previously (PCT Patent Application No. WO 00/09543) with some modifications to the serine protease assays. All enzymes were purchased from Sigma while the substrates were from Bachem.
Each assay included a 2 h enzyme-inhibitor pre-incubation at room temperature followed by addition of substrate and hydrolysis to 30% conversion as measured on a Spectramax Pro microplate reader. Compound concentrations varied from 100 to 0.4 μM depending on their potency. […]
The percentage of inhibition was calculated using the formula: [1−((UVinh−UVblank)/(UVctl−UVblank))]×100 […]

T1 sequence (P00772 27-266): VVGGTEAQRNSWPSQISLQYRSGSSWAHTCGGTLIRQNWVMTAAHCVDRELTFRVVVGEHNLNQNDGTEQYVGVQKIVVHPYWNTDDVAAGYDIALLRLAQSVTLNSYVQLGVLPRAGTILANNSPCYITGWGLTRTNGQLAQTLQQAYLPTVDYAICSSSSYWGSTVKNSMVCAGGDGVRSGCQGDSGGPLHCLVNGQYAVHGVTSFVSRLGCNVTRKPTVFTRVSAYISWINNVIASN

With `C=C[C@@H]1C[C@]1(NC(=O)[C@@H]1C[C@@](O)(c2ccc(-c3ccccc3)cc2)CN1C(=O)[C@@H](NC(=O)OC(C)(C)C)C(C)(C)C)C(=O)NS(=O)(=O)C1CC1` [Compound 3] the IC50 was > 100 µM.
